EP4768489A1, “CYCLOBUTYL-CONTAINING COMPOUNDS” (Chia Tai Tianqing Pharmaceutical Group Co., Ltd., priority 2023, dated 2025)
Numbering of substitutions follows the chain as printed.

Columns and labels:
AR in VCaP cells = molecular target: T1, AR in VCaP cells (Homo sapiens, UniProt P10275); assay: Assay on degradation activity for AR in VCaP cells (HTRF human androgen receptor detection kit); assay type: cell-based; conditions: 24 h; for DC50: AR degradation; for Dmax: maximum degradation rate
T1 construct: Assay on degradation activity for AR in VCaP cells; endogenous in cells; host or cells: VCaP cells
T1 sequence (P10275 1-920): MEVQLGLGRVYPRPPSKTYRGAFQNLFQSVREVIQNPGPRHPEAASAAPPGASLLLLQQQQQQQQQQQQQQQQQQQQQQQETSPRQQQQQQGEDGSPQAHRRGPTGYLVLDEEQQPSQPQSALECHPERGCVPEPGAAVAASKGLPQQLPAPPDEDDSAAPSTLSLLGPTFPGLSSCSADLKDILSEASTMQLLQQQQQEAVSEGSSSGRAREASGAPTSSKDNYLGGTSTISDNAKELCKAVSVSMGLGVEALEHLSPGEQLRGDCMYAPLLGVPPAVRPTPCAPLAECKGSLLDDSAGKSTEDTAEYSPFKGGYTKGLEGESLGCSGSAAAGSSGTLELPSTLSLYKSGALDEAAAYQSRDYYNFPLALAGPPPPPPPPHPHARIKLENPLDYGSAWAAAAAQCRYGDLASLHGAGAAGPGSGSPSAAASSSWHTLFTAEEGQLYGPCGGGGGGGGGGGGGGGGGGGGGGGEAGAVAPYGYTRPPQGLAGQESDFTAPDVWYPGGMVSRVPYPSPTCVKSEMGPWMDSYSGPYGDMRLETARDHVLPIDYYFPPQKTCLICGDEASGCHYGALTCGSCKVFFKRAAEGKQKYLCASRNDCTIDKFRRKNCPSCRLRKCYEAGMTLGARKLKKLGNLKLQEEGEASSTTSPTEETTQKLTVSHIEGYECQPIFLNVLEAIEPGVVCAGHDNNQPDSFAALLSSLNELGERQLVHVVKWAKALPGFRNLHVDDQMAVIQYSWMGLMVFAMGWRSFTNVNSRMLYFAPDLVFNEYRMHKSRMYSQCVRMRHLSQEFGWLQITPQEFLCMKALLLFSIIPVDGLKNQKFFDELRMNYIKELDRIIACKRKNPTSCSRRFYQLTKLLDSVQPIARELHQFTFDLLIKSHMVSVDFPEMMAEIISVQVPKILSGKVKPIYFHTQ
Description: (§1) The detection was carried out using the HTRF HUMAN ANDROGEN RECEPTOR DETECTION KIT (cisbio, 64ANDRPEG), 4× Supplemented Lysis buffer was prepared using the Blocking reagent stock solution (100×) and Lysis buffer stock solution (4×), and 1× Supplemented Lysis buffer was prepared using the 4× Supplemented Lysis buffer and ddH2O. Premixed antibody solutions were prepared using Detection buffer, Androgen Receptor Eu Cryptate antibody, and Androgen Receptor d2 antibody.
The cells were cultured overnight in a cell incubator. […] After the cells were oscillated for 40 min at room temperature, 16 µL of the cell lysis buffer was added to a 384-well plate, the Premixed antibody solutions were added at 4 µL/well, and the mixture was left to stand at 25 °C for 2 h. […] Table 1. Degradation activity of compounds for AR in VCaP cells

[1] = In vitro liver microsome stability, human; assay type: in vitro ADME; conditions: human liver microsomes 0.5 mg/mL, 37 °C, NADPH
Description: Liver microsome incubation samples were prepared by mixing a PBS buffer (pH 7.4), a liver microsome solution (0.5 mg/mL), a test compound, and an NADPH + MgCl2 solution, followed by incubation at 37 °C and 300 rpm for 1 h. Zero-hour samples were prepared by mixing a PBS buffer (pH 7.4), a liver microsome solution (0.5 mg/mL), and a test compound. […]

LNCaP (T878A) cells = assay: cells; conditions: Homo sapiens, 168 h
Description: LNCaP cells in a good growth state were taken, washed with PBS, and digested with pancreatin, and a phenol red-free 1640 complete medium containing 2% CSS-FBS was added to terminate the digestion. The cells were collected into a centrifuge tube, adjusted to a cell density of 1 × 10^5 cells/mL, and seeded in a 96-well plate (100 µL/well). Meanwhile, compounds were added using a nanoliter pipettor and subjected to a 2-fold gradient dilution such that the final concentrations of the compounds were 1000 nM-0.061 nM and 5000 nM-0.305 nM. 2 duplicate wells were set, and meanwhile, a control was set. After the cells were cultured in the cell incubator for another 168 h, the detection reagent CCK-8 (manufacturer: Dojindo, 10 µL/well) was added. After 2.0 h of incubation in the cell incubator, absorbance values at 450 nm were measured using a PerkinElmer Envision microplate reader, the four-parameter analysis was performed, the dose-response curves were fit, and IC50 was calculated.

22RV1 (H875Y/ARV7) cells = assay: Assay on inhibitory activity for 22RV1 (H875Y/ARV7) cell proliferation (CellTiter-Glo); assay type: cell-based; conditions: Homo sapiens, 168 h
Description: After 10 min of incubation at room temperature, the mixture was transferred to a white plate at 100 µL/well. […] Table 6. Inhibitory activity of compounds for 22RV1 (H875Y/ARV7) cell proliferation

[2] = molecular target: T2, AR in MDA-PCA-2B (L702H\T878A) cells (Homo sapiens, UniProt P10275, L702H/T878A); assay: Assay on degradation activity for AR in MDA-PCA-2B (L702H\T878A) cells (HTRF); assay type: cell-based; conditions: 24 h; for DC50: AR degradation; for Dmax: maximum degradation rate
T2 construct: Assay on degradation activity for AR in MDA-PCA-2B (L702H\T878A) cells; endogenous in cells; host or cells: MDA-PCA-2B cells
T2 sequence (P10275 1-920 L702H/T878A): T1 sequence (P10275 1-920) with L702H, T878A
Description: as §1
The cells were cultured overnight in a cell incubator. […] After the cells were oscillated for 40 min at room temperature, 16 µL of the cell lysis buffer was added to a 384-well plate, the Premixed antibody solutions were added at 4 µL/well, and the mixture was left to stand at 25 °C for 2 h. […]

VCaP cells = assay: Assay on inhibitory activity for VCaP cell proliferation (CCK-8); assay type: cell-based; conditions: Homo sapiens, 168 h
[3] = test system: MDA-PCA-2B (L702H\T878A) cells; assay: Assay on inhibitory activity for MDA-PCA-2B (L702H\T878A) cell proliferation (CCK-8); assay type: cell-based; conditions: 168 h
Source text: Table 7. Inhibitory activity of compounds for MDA-PCA-2B (L702H\T878A) cell proliferation

COc1cc(O[C@H]2C(C)(C)[C@H](NC(=O)c3ccc(N4CCC(CN5CCc6c(ccc7c(C8CCC(=O)NC8=O)noc67)C5)CC4)cc3)C2(C)C)ccc1C#N (some centres unmarked) [Compound 1]
DC50 (AR in VCaP cells): < 5 nM | Dmax (AR in VCaP cells): > 75% | HLM (human) Remaining amount at 60 min % [1]: >70% | IC50 (LNCaP (T878A) cells): < 50 nM | IC50 (22RV1 (H875Y/ARV7) cells): < 500 nM | DC50 [2]: < 500 nM | Dmax [2]: > 70% | IC50 (VCaP cells): < 2000 nM | IC50 [3]: < 500 nM

COc1cc(O[C@H]2C(C)(C)[C@H](NC(=O)c3ccc(N4CCC(CN5CCc6c(ccc7c(C8CCC(=O)NC8=O)noc67)C5)CC4)nc3)C2(C)C)ccc1C#N (some centres unmarked) [Compound 3]
DC50 (AR in VCaP cells): < 5 nM | Dmax (AR in VCaP cells): > 75% | HLM (human) Remaining amount at 60 min % [1]: >70% | IC50 (LNCaP (T878A) cells): < 50 nM | IC50 (22RV1 (H875Y/ARV7) cells): < 500 nM | DC50 [2]: < 500 nM | Dmax [2]: > 70% | IC50 (VCaP cells): < 2000 nM | IC50 [3]: < 500 nM

COc1cc(O[C@H]2C(C)(C)[C@H](NC(=O)c3cnc(N4CCC(CN5CCc6c(ccc7c(C8CCC(=O)NC8=O)noc67)C5)CC4)nc3)C2(C)C)ccc1C#N (some centres unmarked) [Compound 4]
DC50 (AR in VCaP cells): < 5 nM | Dmax (AR in VCaP cells): > 75% | HLM (human) Remaining amount at 60 min % [1]: >70% | IC50 (LNCaP (T878A) cells): < 50 nM | IC50 (22RV1 (H875Y/ARV7) cells): < 500 nM | DC50 [2]: < 500 nM | Dmax [2]: > 70% | IC50 (VCaP cells): < 2000 nM | IC50 [3]: < 500 nM

COc1cc(O[C@H]2C(C)(C)[C@H](NC(=O)c3cnc(N4CCC(CN5CCc6c(ccc7c(C8CCC(=O)NC8=O)noc67)C5)CC4)cn3)C2(C)C)ccc1C#N (some centres unmarked) [Compound 5]
DC50 (AR in VCaP cells): < 5 nM | Dmax (AR in VCaP cells): > 75% | HLM (human) Remaining amount at 60 min % [1]: >70% | IC50 (LNCaP (T878A) cells): < 50 nM | IC50 (22RV1 (H875Y/ARV7) cells): < 500 nM | DC50 [2]: < 500 nM | Dmax [2]: > 70% | IC50 (VCaP cells): < 2000 nM | IC50 [3]: < 500 nM

COc1cc(O[C@H]2C(C)(C)[C@H](NC(=O)c3ccc(N4CCC(CN5CCc6c(ccc7c(C8CCC(=O)NC8=O)noc67)C5)CC4)nn3)C2(C)C)ccc1C#N (some centres unmarked) [Compound 6]
DC50 (AR in VCaP cells): < 5 nM | Dmax (AR in VCaP cells): > 75% | IC50 (LNCaP (T878A) cells): < 50 nM | DC50 [2]: < 500 nM | Dmax [2]: > 70%
